The numbers were not newly measured in patent US20100112033A1, “STENTS COATED WITH NO- AND S-NITROSOTHIOL-ELUTING HYDROPHLIC POLYMERIC BLENDS” (Universidade Estadual de Campinas UNICAMP, priority 2005, published 2010), which cites them from elsewhere.

The test system of one data set is neointimal hyperplasia. The note with it: patients, six months after stenting.
In the next data set the test system is platelet aggregation. The note with it: compared to non-nitrosated polymer.
A further data set relates to neointimal formation. The note with it: compared to non-nitrosated polymer.
The next data set has as its system stenosis. Particulars: applied to damaged vascular site, rabbit coronary artery.

Take sirulimus: in the data set on neointimal hyperplasia, the neointimal hyperplasia entry was “minimal neointimal hyperplasia”.
Take “bovine S-nitrosated albumin: nitrosated protein, a protein adduct of nitric oxide”: the “reduction of platelet aggregation” value in the data set on platelet aggregation is on record as 50-70%. Further, the “reduction of neointimal formation” value in the data set with neointimal formation is recorded as 40%. Besides, the effect on stenosis result in the data set on stenosis is on record as “proved to reduce stenosis”.
